Experimental findings from ChEMBL document CHEMBL5291721, “A preclinical secondary pharmacology resource illuminates target-adverse drug reaction associations of marketed drugs” (Nat Commun, 2023) are described below.

“And” between values parts separate entries of the source, which are not always exact repeats. Equal entries are not always repeated.

Experiment [1] has as its target T1, Muscarinic acetylcholine receptor M1 (Homo sapiens, UniProt P11229).
T1 sequence (P11229 whole entry): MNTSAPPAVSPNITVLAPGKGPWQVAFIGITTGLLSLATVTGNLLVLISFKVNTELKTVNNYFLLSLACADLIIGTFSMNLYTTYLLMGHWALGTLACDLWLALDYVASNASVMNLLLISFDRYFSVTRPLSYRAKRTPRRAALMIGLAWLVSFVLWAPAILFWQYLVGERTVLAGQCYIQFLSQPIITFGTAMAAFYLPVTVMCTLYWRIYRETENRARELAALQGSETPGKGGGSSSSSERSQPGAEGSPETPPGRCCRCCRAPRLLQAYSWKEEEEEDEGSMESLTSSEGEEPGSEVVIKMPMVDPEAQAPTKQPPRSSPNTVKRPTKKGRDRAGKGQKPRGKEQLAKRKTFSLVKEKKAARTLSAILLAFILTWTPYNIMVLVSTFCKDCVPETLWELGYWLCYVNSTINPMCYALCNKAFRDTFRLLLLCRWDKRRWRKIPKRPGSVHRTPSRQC
Format: functional.

The target in experiment [2] is T2, Muscarinic acetylcholine receptor M2 (Homo sapiens, UniProt P08172).
T2 sequence (P08172 whole entry): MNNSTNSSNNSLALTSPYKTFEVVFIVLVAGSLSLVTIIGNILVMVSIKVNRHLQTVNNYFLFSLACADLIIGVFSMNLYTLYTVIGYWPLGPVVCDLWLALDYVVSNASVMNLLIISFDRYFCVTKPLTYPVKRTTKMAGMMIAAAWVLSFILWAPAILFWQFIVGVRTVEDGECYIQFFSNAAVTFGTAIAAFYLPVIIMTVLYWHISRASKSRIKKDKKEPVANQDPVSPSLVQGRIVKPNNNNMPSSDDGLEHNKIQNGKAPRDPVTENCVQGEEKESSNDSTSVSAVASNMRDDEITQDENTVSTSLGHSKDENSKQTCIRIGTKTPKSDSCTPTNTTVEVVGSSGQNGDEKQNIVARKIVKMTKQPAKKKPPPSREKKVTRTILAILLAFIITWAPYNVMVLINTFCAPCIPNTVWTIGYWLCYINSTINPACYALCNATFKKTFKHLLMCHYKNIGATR
The class given is functional, cell-based.

Experiment [3] addresses Gamma-aminobutyric acid receptor subunit alpha-1 (Rattus norvegicus, UniProt P62813).
The target in experiment [4] is Histamine H1 receptor (Homo sapiens, UniProt P35367).
The target of experiment [5] is 5-hydroxytryptamine receptor 2A (Homo sapiens, UniProt P28223). Format: functional, cell-based.
For experiment [6], the target named is 5-hydroxytryptamine receptor 2B (Homo sapiens, UniProt P41595). The class given is functional, cell-based.
In experiment [7] the target is T3, Glucocorticoid receptor (Homo sapiens, UniProt P04150).
T3 sequence (P04150 whole entry): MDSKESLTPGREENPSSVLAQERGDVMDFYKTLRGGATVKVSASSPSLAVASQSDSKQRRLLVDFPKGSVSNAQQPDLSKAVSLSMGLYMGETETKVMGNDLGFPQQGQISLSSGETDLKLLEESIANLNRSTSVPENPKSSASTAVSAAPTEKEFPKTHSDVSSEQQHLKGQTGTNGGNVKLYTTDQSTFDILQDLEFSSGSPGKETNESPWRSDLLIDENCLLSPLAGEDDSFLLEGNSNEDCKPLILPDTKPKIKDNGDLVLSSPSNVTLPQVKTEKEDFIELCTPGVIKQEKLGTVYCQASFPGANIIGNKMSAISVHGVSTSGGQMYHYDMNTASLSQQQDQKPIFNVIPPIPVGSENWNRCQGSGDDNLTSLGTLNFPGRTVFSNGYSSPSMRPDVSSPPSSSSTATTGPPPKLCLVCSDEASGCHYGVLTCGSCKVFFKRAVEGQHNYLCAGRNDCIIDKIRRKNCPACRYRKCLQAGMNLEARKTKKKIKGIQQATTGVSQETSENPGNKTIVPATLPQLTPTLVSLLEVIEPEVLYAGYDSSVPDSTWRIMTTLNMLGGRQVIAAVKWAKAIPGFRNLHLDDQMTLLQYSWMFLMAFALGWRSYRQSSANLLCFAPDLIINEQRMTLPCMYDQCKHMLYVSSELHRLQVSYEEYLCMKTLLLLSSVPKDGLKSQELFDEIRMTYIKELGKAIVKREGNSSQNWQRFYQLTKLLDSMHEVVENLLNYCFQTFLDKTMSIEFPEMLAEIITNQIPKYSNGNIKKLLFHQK

The target in experiment [8] is T4, Alpha-1A adrenergic receptor (Homo sapiens, UniProt P35348).
T4 sequence (P35348 whole entry): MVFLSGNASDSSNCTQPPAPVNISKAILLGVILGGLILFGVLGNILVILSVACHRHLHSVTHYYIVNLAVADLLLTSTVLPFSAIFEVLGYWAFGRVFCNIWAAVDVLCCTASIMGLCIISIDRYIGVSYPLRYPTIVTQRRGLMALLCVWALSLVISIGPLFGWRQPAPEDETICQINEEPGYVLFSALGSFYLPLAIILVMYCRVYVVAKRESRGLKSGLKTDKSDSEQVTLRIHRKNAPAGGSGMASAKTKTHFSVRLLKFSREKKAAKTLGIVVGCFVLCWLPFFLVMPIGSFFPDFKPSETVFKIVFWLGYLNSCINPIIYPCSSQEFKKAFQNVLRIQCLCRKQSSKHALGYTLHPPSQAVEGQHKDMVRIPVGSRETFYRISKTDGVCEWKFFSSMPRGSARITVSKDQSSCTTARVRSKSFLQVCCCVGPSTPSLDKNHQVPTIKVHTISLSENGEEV
The class given is functional, cell-based.

Experiment [9] concerns the target Histamine H3 receptor (Homo sapiens, UniProt Q9Y5N1).
The target in experiment [10] is Cannabinoid receptor 1 (Homo sapiens, UniProt P21554). Format: functional, cell-based.
Also: assay procedure not described here.

Chain of Histamine H1 receptor (P35367 whole entry): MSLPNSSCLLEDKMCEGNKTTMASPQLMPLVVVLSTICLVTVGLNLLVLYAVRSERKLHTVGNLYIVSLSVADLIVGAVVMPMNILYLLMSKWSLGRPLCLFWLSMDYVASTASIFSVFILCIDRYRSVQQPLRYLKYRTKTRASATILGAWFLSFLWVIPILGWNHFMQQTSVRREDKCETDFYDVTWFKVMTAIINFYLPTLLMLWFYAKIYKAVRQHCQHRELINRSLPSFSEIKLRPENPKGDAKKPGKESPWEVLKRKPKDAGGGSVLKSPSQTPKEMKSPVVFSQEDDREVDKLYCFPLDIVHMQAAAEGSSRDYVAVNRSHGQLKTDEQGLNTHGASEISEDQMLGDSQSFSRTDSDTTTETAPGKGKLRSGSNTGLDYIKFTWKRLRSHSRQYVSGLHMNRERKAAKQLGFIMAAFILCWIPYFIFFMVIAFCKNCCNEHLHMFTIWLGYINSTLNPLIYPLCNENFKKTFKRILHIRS
Chain of Gamma-aminobutyric acid receptor subunit alpha-1 (P62813 whole entry): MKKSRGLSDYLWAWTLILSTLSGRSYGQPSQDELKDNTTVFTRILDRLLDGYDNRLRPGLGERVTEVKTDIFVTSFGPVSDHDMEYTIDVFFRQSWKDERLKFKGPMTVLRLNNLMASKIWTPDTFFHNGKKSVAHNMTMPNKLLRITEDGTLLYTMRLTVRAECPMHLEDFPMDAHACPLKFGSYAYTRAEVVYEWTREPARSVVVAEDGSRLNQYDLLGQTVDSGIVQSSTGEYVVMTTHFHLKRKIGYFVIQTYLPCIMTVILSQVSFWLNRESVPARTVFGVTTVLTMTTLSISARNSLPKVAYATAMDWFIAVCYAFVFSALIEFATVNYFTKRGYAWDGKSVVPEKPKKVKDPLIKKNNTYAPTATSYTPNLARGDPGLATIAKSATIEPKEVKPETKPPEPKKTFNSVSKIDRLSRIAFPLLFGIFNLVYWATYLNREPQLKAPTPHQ
Chain of Cannabinoid receptor 1 (P21554 whole entry): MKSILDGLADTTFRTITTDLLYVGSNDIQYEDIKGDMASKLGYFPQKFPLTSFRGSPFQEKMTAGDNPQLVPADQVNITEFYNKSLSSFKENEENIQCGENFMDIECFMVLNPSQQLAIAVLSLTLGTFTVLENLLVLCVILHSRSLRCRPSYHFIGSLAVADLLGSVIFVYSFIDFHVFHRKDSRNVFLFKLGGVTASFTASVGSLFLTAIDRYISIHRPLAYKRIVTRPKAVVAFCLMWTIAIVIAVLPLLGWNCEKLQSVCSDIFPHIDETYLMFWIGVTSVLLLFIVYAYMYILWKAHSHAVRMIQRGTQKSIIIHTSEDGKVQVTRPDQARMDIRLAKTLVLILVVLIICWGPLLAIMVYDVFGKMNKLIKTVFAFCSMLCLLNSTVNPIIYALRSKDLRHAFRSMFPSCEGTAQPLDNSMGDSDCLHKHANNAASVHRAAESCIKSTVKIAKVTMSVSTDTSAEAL
Chain of Histamine H3 receptor (Q9Y5N1 whole entry): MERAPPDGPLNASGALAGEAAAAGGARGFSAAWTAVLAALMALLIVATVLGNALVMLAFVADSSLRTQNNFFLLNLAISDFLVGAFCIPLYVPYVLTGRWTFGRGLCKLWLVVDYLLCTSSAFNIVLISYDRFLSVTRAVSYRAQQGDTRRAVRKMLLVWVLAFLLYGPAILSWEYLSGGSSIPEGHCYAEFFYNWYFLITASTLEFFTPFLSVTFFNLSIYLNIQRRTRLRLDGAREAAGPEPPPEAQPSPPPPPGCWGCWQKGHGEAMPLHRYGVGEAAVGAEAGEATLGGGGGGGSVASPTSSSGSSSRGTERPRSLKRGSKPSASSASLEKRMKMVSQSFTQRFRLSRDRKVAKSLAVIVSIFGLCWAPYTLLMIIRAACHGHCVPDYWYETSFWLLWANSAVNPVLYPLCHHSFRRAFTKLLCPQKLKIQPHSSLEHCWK
Chain of 5-hydroxytryptamine receptor 2B (P41595 whole entry): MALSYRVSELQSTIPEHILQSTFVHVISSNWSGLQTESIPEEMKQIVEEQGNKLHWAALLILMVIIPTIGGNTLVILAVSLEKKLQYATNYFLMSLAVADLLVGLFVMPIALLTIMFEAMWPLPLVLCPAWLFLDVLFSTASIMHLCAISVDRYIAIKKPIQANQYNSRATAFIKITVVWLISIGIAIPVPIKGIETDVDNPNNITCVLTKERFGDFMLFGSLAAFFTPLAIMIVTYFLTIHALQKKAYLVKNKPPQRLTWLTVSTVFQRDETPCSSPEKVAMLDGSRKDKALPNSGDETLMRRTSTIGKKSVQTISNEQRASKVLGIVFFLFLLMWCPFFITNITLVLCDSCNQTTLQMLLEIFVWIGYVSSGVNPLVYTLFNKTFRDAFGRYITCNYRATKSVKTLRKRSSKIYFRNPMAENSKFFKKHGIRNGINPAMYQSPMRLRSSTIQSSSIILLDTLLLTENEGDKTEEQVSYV
Chain of 5-hydroxytryptamine receptor 2A (P28223 whole entry): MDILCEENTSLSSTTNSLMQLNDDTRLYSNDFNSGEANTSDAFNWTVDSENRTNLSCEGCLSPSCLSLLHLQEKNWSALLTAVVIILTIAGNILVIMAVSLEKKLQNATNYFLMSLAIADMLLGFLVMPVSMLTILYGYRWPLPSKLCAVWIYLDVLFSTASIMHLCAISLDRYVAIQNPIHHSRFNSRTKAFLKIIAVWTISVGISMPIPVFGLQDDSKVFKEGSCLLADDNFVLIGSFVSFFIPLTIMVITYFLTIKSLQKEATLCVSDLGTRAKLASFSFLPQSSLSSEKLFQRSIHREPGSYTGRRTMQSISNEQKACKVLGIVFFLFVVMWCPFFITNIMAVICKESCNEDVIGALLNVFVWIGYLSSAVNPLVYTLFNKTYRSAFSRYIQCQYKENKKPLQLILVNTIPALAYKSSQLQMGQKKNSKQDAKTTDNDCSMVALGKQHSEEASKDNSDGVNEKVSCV

`Clc1ccc(C(Cn2ccnc2)OCc2ccsc2Cl)c(Cl)c1` (stereo unspecified) [TIOCONAZOLE]: the AC50 (commonly the concentration giving half of the maximal activity seen) in experiment [1] was over 30 µM; in experiment [2], over 30 µM; in experiment [3] it was over 30 µM; in [4], over 30 µM; in [5], 19 µM; in experiment [6], over 30 µM. Moreover, the AC50 is 17.9 µM in [7], 3.2 µM in [8] and over 30 µM in experiment [9].

In the case of `Clc1ccc2c(N3CCN(CCCN4CCN(c5ccnc6cc(Cl)ccc56)CC4)CC3)ccnc2c1` [PIPERAQUINE], the AC50 in experiment [1] was 3.8 µM; in experiment [2], over 30 µM; in experiment [10] it was over 30 µM; in experiment [3], over 30 µM; in experiment [4], over 30 µM; in experiment [5], over 30 µM. In addition, the AC50 in experiment [6] was over 30 µM; in experiment [7] it was over 30 µM; in [8], over 30 µM; in [9], 6.1 µM.

Consider `CCOC(=O)C1=C[C@]2(CC)CCCN3CCc4c(n1c1ccccc41)[C@@H]32` [VINPOCETINE], for which the AC50 in [1], in experiment [10], in experiment [3], in [4], in experiment [5] and in experiment [7] was over 30 µM throughout. In addition, the AC50 was over 30 µM in experiment [8] and 18 µM in experiment [9].

As to `COCC1=C(C(=O)O)N2C(=O)[C@@H](NC(=O)/C(=N\OC)c3csc(N)n3)[C@H]2SC1` [CEFPODOXIME], the AC50 in experiment [1], in experiment [2], in [10], in experiment [3], in [4] and in experiment [5] was over 30 µM each time. The AC50 in [6], in [7], in experiment [8] and in experiment [9] was over 30 µM throughout.

Consider `C[C@H](Cc1ccc(O)c(O)c1)[C@@H](C)Cc1ccc(O)c(O)c1` [MASOPROCOL], for which the AC50 was > 10 µM and 29 µM and > 30 µM in experiment [1]; over 30 µM in experiment [2]; over 30 µM in experiment [10]; over 10 µM in experiment [3]; over 30 µM in experiment [4]; 13 µM and > 30 µM and 21 µM in [5]. The AC50 in [6] is 11 µM; in experiment [7] it was 8.7 µM; in experiment [8], 8.4 µM and > 30 µM (2×); in experiment [9] it was over 10 µM.

With `CC(C)(C)C(=O)OCC(=O)[C@H]1CC[C@H]2[C@@H]3CCC4=CC(=O)CC[C@]4(C)[C@H]3CC[C@]12C` [DESOXYCORTICOSTERONE PIVALATE], the AC50 in experiment [1] is over 10 µM; in experiment [2], over 10 µM; in [10], over 30 µM; in [3] it was over 10 µM; in [4], over 10 µM; in experiment [5] it was over 10 µM. Further, the AC50 was over 10 µM in experiment [6], over 30 µM in [8] and over 10 µM in [9].

With `CCC(=O)O[C@H]1CC[C@H]2[C@@H]3CCC4=CC(=O)CC[C@]4(C)[C@H]3CC[C@]12C` [TESTOSTERONE PROPIONATE], the AC50 in [1] was over 10 µM; in experiment [2], over 10 µM; in experiment [10], over 30 µM; in experiment [3], over 10 µM; in [4], over 10 µM; in experiment [5] it was over 30 µM. Moreover, the AC50 in [6] is over 10 µM; in [7] it was 0.109 µM; in experiment [8], over 30 µM.

Take `CC1(C)S[C@@H]2[C@H](NC(=O)[C@H](N)c3ccccc3)C(=O)N2[C@H]1C(=O)OCOC(=O)[C@@H]1N2C(=O)C[C@H]2S(=O)(=O)C1(C)C` [SULTAMICILLIN]: the AC50 in experiment [1], in experiment [2], in [10], in [4], in experiment [5] and in experiment [6] was over 30 µM in each case. The AC50 in experiment [7], in experiment [8] and in experiment [9] was over 30 µM in each case.

On to `CCC(C)C1(CC)C(=O)NC(=O)NC1=O` (stereo unspecified) [BUTABARBITAL], for which the AC50 in experiment [1], in experiment [2], in [10], in experiment [4], in [5] and in experiment [6] was over 30 µM each time. Also, the AC50 in experiment [7], in experiment [8] and in [9] was over 30 µM in each case.

As for `C/N=C(\NC)NCc1ccccc1` [BETHANIDINE], the AC50 in experiment [1], in experiment [2], in experiment [10], in experiment [4], in experiment [5] and in [6] was over 30 µM throughout. Also, the AC50 in experiment [7], in experiment [8] and in [9] was over 30 µM throughout.

Regarding `CC1OC2(CS1)CN1CCC2CC1` (stereo unspecified) [CEVIMELINE], the AC50 was over 30 µM in experiment [1]; over 10 µM in [3]; over 30 µM in experiment [4]; over 10 µM in [5]; over 10 µM in experiment [6]; over 10 µM in [7]. Besides, the concentration at half-maximal activity (AC50) in experiment [8] was over 30 µM.

Take `CCC1(c2ccccc2)CCC(=O)NC1=O` (stereo unspecified) [GLUTETHIMIDE]: the AC50 in experiment [1] was over 10 µM; in experiment [2], over 10 µM; in experiment [10] it was over 30 µM; in experiment [3] it was over 10 µM; in [4], over 10 µM; in experiment [5], over 30 µM. Moreover, the values for the concentration at half-maximal activity (AC50) in experiment [6], in experiment [8] and in experiment [9] were over 10 µM, over 30 µM and over 10 µM, respectively.

For the compound `CCC(C)C(CC)C(N)=O` (stereo unspecified) [VALNOCTAMIDE], the AC50 in [1], in [2], in experiment [10], in experiment [3], in [4] and in [5] was over 30 µM in each case. The AC50 in experiment [7], in experiment [8] and in [9] was over 30 µM each time.

As for `CCOC(=O)c1cncn1[C@H](C)c1ccccc1` [ETOMIDATE], the AC50 in experiment [1] was over 10 µM; in [2], over 10 µM; in experiment [10], over 30 µM; in experiment [4] it was over 10 µM; in experiment [5] it was over 10 µM; in experiment [6], over 10 µM. The AC50 is over 10 µM in experiment [7], over 30 µM in experiment [8] and over 10 µM in experiment [9].
